Two molecules from patent US7250410B2, “Cyclic nucleotide phosphodiesterase inhibitors, preparation and uses thereof” (Via Pharmaceuticals, Inc., priority 2001, dated 2007) can be followed below.

The subject of one assay is PDE1. In words: Selectivity: inhibition of PDE1, radioenzymatic phosphodiesterase assay. The class given is biochemical, bovine. On the set-up: PDE1 percentage inhibition at 10 μM: unit: %. The settings on record: Table 4 Selectivity; compound at 10 μM. As to the method: (§1) A 3 g segment of bovine aortic media cut into pieces with scissors was homogenized with an ultra-turrax then a potter glass/glass homogenizer in 7 volumes by weight of buffer A containing a protease inhibitor cocktail (20 mM Tris-HCl, 0.25 M saccharose, 2 mM magnesium acetate, 1 mM dithiothreitol, 5 mM EGTA, 2000 U/ml aprotinin, 10 mg/l leupeptin and 10 mg/l soya trypsic inhibitor). The homogenizate was centrifuged at 105,000 g for 1 hour. The supernatant was loaded on a DEAE-Sephacel column (15×1.6 cm) pre-equilibrated with buffer B (buffer A without the saccharose, EGTA and protease inhibitors). The column was washed until there was no detectable absorption at 280 nm, then eluted with a linear gradient of NaCl (0–0.5 M) in buffer B. 3-ml fractions were collected and enzyme activity was determined under the conditions described hereinafter to localize the different enzymes PDE1, PDE3, PDE4 and PDE5, which were aliquoted and frozen at −80° C. (Lugnier et al., Biochem. Phamacol., 35 (1986) 1746–1751). PDE2 was prepared from bovine endothelial cells by the same methods (Lugnier and Schini, Biochem. Pharmacol. 1990, 39; 75–84).
(§2) Cyclic nucleotide phosphodiesterase activity was determined by a radioenzymatic method using tritium-labelled cyclic GMP or AMP (1 μM) as substrate (Lugnier et al., 1986). ^3H-labelled adenosine or guanosine monophosphate formed by hydrolysis of the radiolabelled cyclic nucleotide was then converted to ^3H-labelled adenosine or guanosine in a second reaction with […] in excess. The nucleoside formed was separated from the nucleotides by anion exchange chromatography. Nucleoside radioactivity was determined by liquid scintillation counting. Enzymatic incubations were carried out under conditions allowing no more than 15% hydrolysis of the substrate; each point was performed in duplicate.
(§3) The activity of the compounds was evaluated on other phosphodiesterase isoforms, particularly basal state or calmodulin-activated PDE1 from vascular smooth muscle, basal state or cyclic GMP-activated PDE2 from vascular endothelial cells, PDE3 and PDE5 from vascular smooth muscle.
(§4) The results obtained are presented in Table 4 hereinafter and are expressed as the percentage inhibition of enzymatic activity produced by […] of the tested compound.

A further assay deals with T1, PDE3 (Bos taurus, UniProt A0A3Q1M1E8).
T1 sequence (A0A3Q1M1E8 1-1126): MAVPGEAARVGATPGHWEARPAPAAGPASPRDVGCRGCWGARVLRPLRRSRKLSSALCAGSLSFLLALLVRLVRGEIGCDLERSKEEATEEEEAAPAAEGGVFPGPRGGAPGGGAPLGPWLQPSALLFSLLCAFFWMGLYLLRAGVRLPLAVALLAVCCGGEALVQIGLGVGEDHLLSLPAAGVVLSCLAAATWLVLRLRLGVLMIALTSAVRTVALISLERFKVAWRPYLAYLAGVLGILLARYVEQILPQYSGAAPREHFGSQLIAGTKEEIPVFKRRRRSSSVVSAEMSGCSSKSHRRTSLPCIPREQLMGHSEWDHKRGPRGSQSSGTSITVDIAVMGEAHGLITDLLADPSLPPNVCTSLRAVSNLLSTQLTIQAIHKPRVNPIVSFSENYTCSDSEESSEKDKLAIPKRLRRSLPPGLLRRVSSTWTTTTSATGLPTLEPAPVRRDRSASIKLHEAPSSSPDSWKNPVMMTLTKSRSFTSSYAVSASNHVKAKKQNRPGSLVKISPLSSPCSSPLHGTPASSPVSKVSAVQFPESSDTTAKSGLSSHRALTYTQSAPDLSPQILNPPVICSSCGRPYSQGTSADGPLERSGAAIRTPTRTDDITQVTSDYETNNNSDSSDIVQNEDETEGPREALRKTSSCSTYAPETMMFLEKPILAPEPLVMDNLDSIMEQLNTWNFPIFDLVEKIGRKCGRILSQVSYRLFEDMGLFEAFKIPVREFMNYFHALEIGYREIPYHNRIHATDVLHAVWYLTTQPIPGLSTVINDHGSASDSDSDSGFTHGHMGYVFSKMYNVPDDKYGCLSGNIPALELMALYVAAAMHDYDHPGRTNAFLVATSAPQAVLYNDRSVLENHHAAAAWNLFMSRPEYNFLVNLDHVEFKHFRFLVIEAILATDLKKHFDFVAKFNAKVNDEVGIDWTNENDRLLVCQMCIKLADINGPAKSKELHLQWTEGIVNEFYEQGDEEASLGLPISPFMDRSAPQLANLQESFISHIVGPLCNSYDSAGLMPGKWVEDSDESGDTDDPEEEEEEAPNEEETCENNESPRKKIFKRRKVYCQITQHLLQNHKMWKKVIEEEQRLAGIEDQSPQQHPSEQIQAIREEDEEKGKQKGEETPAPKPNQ
As to the kind of experiment: Selectivity: inhibition of PDE3, radioenzymatic phosphodiesterase assay. The conditions noted are these: read-out: PDE3 percentage inhibition at 10 μM. It counts as biochemical, bovine. As for the experimental part: as §1, §2, §3, §4

The target in another assay is T2, PDE5 (Bos taurus, UniProt Q28156).
T2 construct: localize the different enzymes PDE1, PDE3, PDE4 and PDE5, which were aliquoted and frozen; from tissue; host or cells: bovine aortic media (vascular smooth muscle), DEAE-Sephacel fraction
As to the kind of experiment: Selectivity: inhibition of PDE5, radioenzymatic phosphodiesterase assay. It counts as biochemical, bovine. The conditions noted are these: Table 4 Selectivity; compound at 10 μM; read-out: PDE5 percentage inhibition at 10 μM. As to the method:
as §1, §2, §3, §4

Another assay concerns TNFα. In words: TNFα production by LPS-activated mononuclear cells from venous blood (ELISA). It counts as cell-based. The conditions noted are these: Homo sapiens. As for the experimental part: Compounds according to the invention were assessed for anti-inflammatory properties on mononuclear cells from venous blood of healthy donors (n=4), by a protocol approved by the Alsace No. 1 Ethics Committee. More specifically, the cells were incubated for 24 hours in 24-well plates in the presence of the test compound, after activation by Salmonella Abortis Equi lipopolysaccharide (LPS) (5 pg/ml) (cf. De Groote et al., Cytokine 4, 1992, 239). After incubation, TNFα concentrations were determined in the culture supernatant by an ELISA method (Antibody Solutions, Half Moon Bay, Calif., USA).

`CCOc1cc2c(cc1OCC)C(c1ccccc1)=NCC(=O)N2` [XXIIag, 7,8-diethoxy-5-phenyl-1,3-dihydro-2H-1,4-benzodiazepin-2-one]: in the assay with PDE1, the “PDE1 percentage inhibition at 10 μM” value stood at 46%. For the same molecule, the inhibition (usually the drop in the measured response relative to a control, in per cent) at 10 µM at PDE3 came out at 22%; on PDE5 it was 35%. In the assay with TNFα (read-out: anti-TNFα activity IC50), the IC50 (commonly the concentration that inhibits the measured activity by half) fell in the range of 100 to 1000 nM.

On to `CCOc1cc2c(cc1OC)C(c1ccccc1)=NCC(=O)N2C` [IIda, 8-ethoxy-7-methoxy-1-methyl-5-phenyl-1,3-dihydro-2H-1,4-benzodiazepin-2-one], for which the “PDE1 percentage inhibition at 10 μM” value in the assay on PDE1 stood at 26%. In addition, the inhibition at 10 µM was found to be 47% at PDE3 and 14% at PDE5. In addition, in the assay with TNFα (24 h, read-out: inhibition of TNFα production), the inhibition at 1 µM was found to be 100%.
